The text below walks through data of BindingDB's records for doi:10.7270/Q280511V (University of Pittsburgh, 2008).

pIC50: −log10 of the molar value.

In this assay the target is Serine/threonine-protein kinase PLK1 (Homo sapiens, UniProt P53350). Put plainly: PLK1 polo-box domain peptide-binding inhibitors, SAR follow-up, biochemical, fluorescence polarization, synthesized analogs, concentration response (AID 1057). (Polarisation of emitted light reports the rotation of a fluorescent probe.)
Serine/threonine-protein kinase PLK1, sequence (P53350 whole entry, the tested form may be a part): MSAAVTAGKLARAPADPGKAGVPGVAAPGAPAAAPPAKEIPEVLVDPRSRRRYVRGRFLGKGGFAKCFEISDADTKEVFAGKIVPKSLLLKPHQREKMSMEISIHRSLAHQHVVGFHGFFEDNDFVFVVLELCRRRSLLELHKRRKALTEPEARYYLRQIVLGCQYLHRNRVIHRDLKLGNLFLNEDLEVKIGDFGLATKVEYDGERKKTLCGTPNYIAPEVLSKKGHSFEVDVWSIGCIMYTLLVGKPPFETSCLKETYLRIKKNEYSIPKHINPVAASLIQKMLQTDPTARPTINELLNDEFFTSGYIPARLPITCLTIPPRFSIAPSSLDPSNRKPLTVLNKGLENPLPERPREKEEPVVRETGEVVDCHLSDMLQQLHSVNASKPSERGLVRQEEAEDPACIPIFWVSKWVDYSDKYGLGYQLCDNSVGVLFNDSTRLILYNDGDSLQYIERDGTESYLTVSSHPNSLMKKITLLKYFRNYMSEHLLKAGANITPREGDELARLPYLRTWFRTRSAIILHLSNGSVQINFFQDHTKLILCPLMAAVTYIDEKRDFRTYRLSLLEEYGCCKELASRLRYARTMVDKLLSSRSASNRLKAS
With `CCOC(=O)c1ccc(NC(=O)c2ccc(F)cc2F)cc1` [4-[(2,4-difluorobenzoyl)amino]benzoic acid ethyl ester], the negative logarithm of the IC50 (pIC50) (usually the IC50 on a negative log10 scale, so that one unit is a factor of ten) is less than 4.30.
The result for `CCCCOC(=O)c1ccc(NC(=O)c2c(O)[nH]c(=O)[nH]c2=O)cc1` [4-[[(6-hydroxy-2,4-dioxo-1H-pyrimidin-5-yl)-oxomethyl]amino]benzoic acid butyl ester] reads less than 4.30; that for `CCOC(=O)c1cccc(NC(=O)c2c(N)n(C)c(=O)[nH]c2=O)c1` [UPDDI-00398617], less than 4.30.
In the case of `CCOC(=O)c1ccc(NC(=O)c2c(N)n(C)c(=O)n(C)c2=O)cc1` [4-[(4-amino-2,6-diketo-1,3-dimethyl-pyrimidine-5-carbonyl)amino]benzoic acid ethyl ester], the pIC50 is less than 4.30.
Compound `CCOC(=O)c1ccc(NC(=O)c2c(N)n(Cc3ccccc3)c(=O)[nH]c2=O)cc1` [ethyl 4-[(6-amino-1-benzyl-2,4-dioxopyrimidine-5-carbonyl)amino]benzoate] showed a pIC50 of less than 4.30.
Regarding `O=C(Nc1ccccc1)c1c(O)[nH]c(=S)[nH]c1=O`, the pIC50 is less than 4.30.
The result for `CCOC(=O)c1ccccc1NC(=O)c1c(O)[nH]c(=S)[nH]c1=O` reads less than 4.30; that for `CCOC(=O)c1cccc(NC(=O)c2c(NCc3ccccc3)[nH]c(=O)[nH]c2=O)c1` [ethyl 3-[[2,4-bis(oxidanylidene)-6-[(phenylmethyl)amino]-1H-pyrimidin-5-yl]carbonylamino]benzoate], less than 4.30.
The compound `CCOC(=O)CCCCCNC(=O)c1ccc(F)cc1F` [6-[(2,4-difluorobenzoyl)amino]hexanoic acid ethyl ester] gave a pIC50 of less than 4.30.
In the case of `CCOC(=O)c1ccccc1NC(=O)c1ccc(F)cc1F` [2-[(2,4-difluorobenzoyl)amino]benzoic acid ethyl ester], the pIC50 is less than 4.30.
The compound `CCOC(=O)c1cccc(NC(=O)c2ccc(F)cc2F)c1` [3-[(2,4-difluorobenzoyl)amino]benzoic acid ethyl ester] showed a pIC50 of less than 4.30.
Next, `CCOc1ccc(NC(=O)c2ccc(F)cc2F)cc1` [2,4-difluoro-N-p-phenetyl-benzamide]: less than 4.30.
The result for `O=C(Nc1ccccc1)c1c(O)[nH]c(=O)[nH]c1=O` reads less than 4.30; that for `Cn1c(N)c(S(=O)(=O)NCc2ccccc2)c(=O)n(C)c1=O` [4-amino-1,3-dimethyl-2,6-dioxo-N-(phenylmethyl)-5-pyrimidinesulfonamide], less than 4.30.
The compound `CCCCOC(=O)c1ccc(NC(=O)c2ccc(F)cc2F)cc1` [4-[(2,4-difluorobenzoyl)amino]benzoic acid butyl ester] showed a negative logarithm of the IC50 (pIC50) of less than 4.30.
Compound `CCOC(=O)c1ccccc1NC(=O)c1c(N)n(C)c(=O)[nH]c1=O` [ethyl 2-[[6-azanyl-1-methyl-2,4-bis(oxidanylidene)pyrimidin-5-yl]carbonylamino]benzoate] gave a pIC50 of less than 4.30.
The result for `CCOC(=O)c1ccc(NC(=O)c2c(NCc3ccccc3)[nH]c(=O)[nH]c2=O)cc1` [UPDDI-00398618] reads less than 4.30; that for `CCOC(=O)c1ccc(NS(=O)(=O)c2c(N)n(C)c(=O)n(C)c2=O)cc1` [4-[(4-amino-1,3-dimethyl-2,6-dioxo-5-pyrimidinyl)sulfonylamino]benzoic acid ethyl ester], less than 4.30; that for `CCOC(=O)c1ccc(NC(=O)c2c(N)n(C)c(=O)[nH]c2=O)cc1` [UPDDI-00294856], less than 4.30.
Compound `CCCCOC(=O)c1ccc(NC(=O)c2c(N)n(C)c(=O)[nH]c2=O)cc1` [4-[[(6-amino-1-methyl-2,4-dioxo-5-pyrimidinyl)-oxomethyl]amino]benzoic acid butyl ester] showed a pIC50 of less than 4.30.
In the case of `CCOC(=O)c1ccccc1NC(=O)c1c(O)[nH]c(=O)[nH]c1=O`, the pIC50 is less than 4.30.
Next, `CCOC(=O)c1ccc(NC(=O)c2c(O)[nH]c(=O)[nH]c2=O)cc1`: less than 4.30; `Cc1ccc(NC(=O)c2ccc(F)cc2F)cc1` [2,4-bis(fluoranyl)-N-(4-methylphenyl)benzamide]: less than 4.30.
The result for `CCOc1ccc(NC(=O)c2c(N)n(C)c(=O)[nH]c2=O)cc1` reads less than 4.30.
The result for `O=C(Nc1ccccc1)c1ccc(F)cc1F` [2,4-bis(fluoranyl)-N-phenyl-benzamide] reads less than 4.30; that for `CC(NNC(=O)c1ccncc1)=C1C(=O)NC(=O)NC1=O`, less than 4.30; that for `CCOc1ccc(NC(=O)c2c(O)[nH]c(=O)[nH]c2=O)cc1` [N-(4-ethoxyphenyl)-6-hydroxy-2,4-dioxo-1H-pyrimidine-5-carboxamide], less than 4.30.
Take `CCOC(=O)CCCCCNC(=O)C1C(=O)NC(=O)NC1=O` [6-[[hydroxy-(2,4,6-triketohexahydropyrimidin-5-ylidene)methyl]amino]hexanoic acid ethyl ester]: the pIC50 was less than 4.30.
The compound `Cn1c(N)c(C(=O)Nc2ccccc2)c(=O)[nH]c1=O` [UPDDI-00398616] gave a negative logarithm of the IC50 (pIC50) of less than 4.30.
`CCOC(=O)c1cccc(NC(=O)c2c(O)[nH]c(=O)[nH]c2=O)c1` [3-[[(6-hydroxy-2,4-dioxo-1H-pyrimidin-5-yl)-oxomethyl]amino]benzoic acid ethyl ester] gave a pIC50 of less than 4.30.
Next, `Cc1cccc(NNC=C2C(=O)NC(=S)NC2=O)c1` [5-[[2-(3-methylphenyl)hydrazinyl]methylidene]-2-sulfanylidene-1,3-diazinane-4,6-dione]: less than 4.30.
